In PubChem BioAssay (NCI) one finds TGI data, which are given here for 1 molecule.

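Growth conditions: 96-well plates. Treatment: test compound, 48 hours, 5 concentrations. Analysis: linear interpolation between bracketing concentrations; unreached endpoints set to highest concentration. TGI: concentration producing complete growth inhibition.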

Test systems include CCRF-CEM leukemia; HCT-116 colon; IGROV1 ovarian; MDA-MB-231 breast; NCI-H226 lung; OVCAR-4 ovarian; PC-3 prostate; SF-268 CNS; SF-295 CNS; SK-MEL-2 melanoma; SNB-19 CNS; U251 CNS.
Common to all, as to experiment: NCI-60 cell line screen, 48 h

Consider `COC(=O)C1=C(OC(=O)/C=C/c2ccc(Cl)cc2)C(C(=O)OC)[C@@]2(O)[C@@H](C(=O)OC)[C@H](C)C[C@@H]1[C@@H]2C(=O)OC` (some centres not stated), for which the TGI in the assay with CCRF-CEM leukemia was 64.8 µM; in the assay with HCT-116 colon, 58.3 µM; in the assay with IGROV1 ovarian it was 23.1 µM; in the assay with MDA-MB-231 breast it was 64.9 µM; in the assay with NCI-H226 lung it was 61 µM; with OVCAR-4 ovarian, above 100 µM. Moreover, the TGI is 69 µM with PC-3 prostate; 42.9 µM in the assay with SF-268 CNS; above 100 µM with SF-295 CNS; 37 µM in the assay with SK-MEL-2 melanoma; above 100 µM with SNB-19 CNS; above 100 µM in the assay with U251 CNS.
